Measured values from ChEMBL document CHEMBL1201862, “PubChem BioAssay data set” (2004).
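These data come from cells grown in 96-well plates and exposed to compound for 48 hours at five concentrations. The concentration for 50% growth inhibition is given as GI50.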 Active and inactive are the calls of the source. Cut-off read from the data, not from the text of the source: active = GI50 up to about 1.1 µM and inactive = higher.

What was measured:
Experiment in all cases: growth of human tumour cells (NCI), 48 h
786-0 = tested on: 786-0
A498 = tested on: A498
A549 = tested on: A549
BT-549 = tested on: BT-549
CAKI-1 = tested on: CAKI-1
CCRF-CEM = tested on: CCRF-CEM
COLO 205 = tested on: COLO 205
DU-145 = tested on: DU-145
EKVX = tested on: EKVX
HCT-116 = tested on: HCT-116
HCT-15 = tested on: HCT-15
HL-60 = tested on: HL-60
HOP-62 = tested on: HOP-62
HT-29 = tested on: HT-29
Hs-578T = tested on: Hs-578T
IGROV-1 = tested on: IGROV-1
K562 = tested on: K562
KM12 = tested on: KM12
LOX IMVI = tested on: LOX IMVI
M14 = tested on: M14
MCF7 = tested on: MCF7
MDA-MB-231 = tested on: MDA-MB-231
MDA-MB-435 = tested on: MDA-MB-435
MDA-N = tested on: MDA-N
MOLT-4 = tested on: MOLT-4
Malme-3M = tested on: Malme-3M
NCI-H226 = tested on: NCI-H226
NCI-H460 = tested on: NCI-H460
NCI-H522 = tested on: NCI-H522
NCI/ADR-RES = tested on: NCI/ADR-RES
OVCAR-3 = tested on: OVCAR-3
OVCAR-4 = tested on: OVCAR-4
OVCAR-5 = tested on: OVCAR-5
OVCAR-8 = tested on: OVCAR-8
PC-3 = tested on: PC-3
RPMI-8226 = tested on: RPMI-8226
RXF 393 = tested on: RXF 393
SF-268 = tested on: SF-268
SF-295 = tested on: SF-295
SF-539 = tested on: SF-539
SK-MEL-28 = tested on: SK-MEL-28
SK-MEL-2 = tested on: SK-MEL-2
SK-MEL-5 = tested on: SK-MEL-5
SK-OV-3 = tested on: SK-OV-3
SN12C = tested on: SN12C
SNB-19 = tested on: SNB-19
SNB-75 = tested on: SNB-75
SR = tested on: SR
SW-620 = tested on: SW-620
T47D = tested on: T47D
TK-10 = tested on: TK-10
U-251 = tested on: U-251
UACC-257 = tested on: UACC-257
UACC-62 = tested on: UACC-62
UO-31 = tested on: UO-31
ACHN = tested on: ACHN
HCC 2998 = tested on: HCC 2998
HOP-92 = tested on: HOP-92
NCI-H23 = tested on: NCI-H23

Measured: GI50

O=C(NNC(=O)c1ccccc1O)c1ccco1
inactive: 786-0 > 100 µM | A498 > 100 µM | A549 > 100 µM | BT-549 > 100 µM | CAKI-1 > 100 µM | CCRF-CEM 31.3 µM | COLO 205 83 µM | DU-145 > 100 µM | EKVX > 100 µM | HCT-116 97.5 µM | HL-60 28.9 µM | HOP-62 > 100 µM | HT-29 51.5 µM | Hs-578T > 100 µM | IGROV-1 64.9 µM | K562 > 100 µM | KM12 > 100 µM | LOX IMVI > 100 µM | M14 > 100 µM | MCF7 > 100 µM | MDA-MB-231 60.5 µM | MDA-MB-435 > 100 µM | MDA-N > 100 µM | MOLT-4 > 100 µM | Malme-3M > 100 µM | NCI-H226 > 100 µM | NCI-H460 45.4 µM | NCI-H522 57.3 µM | NCI/ADR-RES 55.7 µM | OVCAR-3 57.4 µM | OVCAR-4 > 100 µM | OVCAR-5 > 100 µM | OVCAR-8 80.7 µM | PC-3 > 100 µM | RPMI-8226 84.5 µM | RXF 393 > 100 µM | SF-268 > 100 µM | SF-295 > 100 µM | SF-539 > 100 µM | SK-MEL-28 > 100 µM | SK-MEL-2 > 100 µM | SK-MEL-5 > 100 µM | SK-OV-3 > 100 µM | SN12C > 100 µM | SNB-19 > 100 µM | SNB-75 38.6 µM | SR 66.7 µM | SW-620 67.8 µM | T47D > 100 µM | TK-10 > 100 µM | U-251 > 100 µM | UACC-257 > 100 µM | UACC-62 > 100 µM | UO-31 > 100 µM
61.1 µM: HCT-15

O=C1CSC2=NCC3(NN12)c1ccccc1-c1ccccc13
inactive: 786-0 > 10 µM | A549 > 10 µM | ACHN > 10 µM | BT-549 > 10 µM | CAKI-1 > 10 µM | CCRF-CEM > 10 µM | COLO 205 > 10 µM | DU-145 > 10 µM | EKVX > 10 µM | HCC 2998 > 10 µM | HCT-116 > 10 µM | HL-60 > 10 µM | HOP-62 > 10 µM | HOP-92 > 10 µM | HT-29 > 10 µM | Hs-578T > 10 µM | IGROV-1 > 10 µM | K562 > 10 µM | KM12 > 10 µM | LOX IMVI > 10 µM | M14 > 10 µM | MCF7 > 10 µM | MDA-MB-231 > 10 µM | MDA-MB-435 > 10 µM | MDA-N > 10 µM | MOLT-4 > 10 µM | Malme-3M > 10 µM | NCI-H226 > 10 µM | NCI-H23 > 10 µM | NCI-H460 > 10 µM | NCI-H522 > 10 µM | NCI/ADR-RES > 10 µM | OVCAR-4 > 10 µM | OVCAR-8 > 10 µM | PC-3 > 10 µM | RPMI-8226 > 10 µM | RXF 393 > 10 µM | SF-268 > 10 µM | SF-295 > 10 µM | SF-539 > 10 µM | SK-MEL-28 > 10 µM | SK-MEL-5 > 10 µM | SK-OV-3 > 10 µM | SN12C > 10 µM | SNB-19 > 10 µM | SNB-75 > 10 µM | SR > 10 µM | SW-620 > 10 µM | T47D > 10 µM | TK-10 > 10 µM | UACC-257 > 10 µM | UACC-62 > 10 µM | UO-31 > 10 µM
> 10 µM: HCT-15

COC(=O)C1(C)CCC(c2ccc(C)cc2)=C(CC(=O)O)C1 (configuration not stated)
inactive: 786-0 > 100 µM | A498 > 100 µM | A549 > 100 µM | ACHN > 100 µM | BT-549 > 100 µM | COLO 205 > 100 µM | DU-145 > 100 µM | EKVX > 100 µM | HCT-116 > 100 µM | HL-60 > 100 µM | HOP-62 > 100 µM | HOP-92 > 100 µM | HT-29 > 100 µM | Hs-578T > 100 µM | IGROV-1 > 100 µM | K562 > 100 µM | LOX IMVI > 100 µM | M14 > 100 µM | MCF7 > 100 µM | MDA-MB-231 > 100 µM | MDA-MB-435 > 100 µM | MDA-N > 100 µM | MOLT-4 > 100 µM | Malme-3M > 100 µM | NCI-H23 > 100 µM | NCI-H460 > 100 µM | NCI-H522 > 100 µM | NCI/ADR-RES > 100 µM | OVCAR-3 > 100 µM | OVCAR-4 > 100 µM | OVCAR-5 > 100 µM | OVCAR-8 > 100 µM | PC-3 > 100 µM | RPMI-8226 > 100 µM | RXF 393 > 100 µM | SF-268 > 100 µM | SF-295 > 100 µM | SF-539 > 100 µM | SK-MEL-28 > 100 µM | SK-MEL-2 > 100 µM | SK-MEL-5 > 100 µM | SK-OV-3 > 100 µM | SN12C > 100 µM | SNB-19 > 100 µM | SNB-75 > 100 µM | SR > 100 µM | SW-620 > 100 µM | T47D > 100 µM | TK-10 > 100 µM | U-251 > 100 µM | UACC-257 > 100 µM | UACC-62 > 100 µM
> 100 µM: HCT-15
